biological target: T1, recombinant autotaxin (Homo sapiens, UniProt Q13822); assay: Autotaxin assay (Amplex Red fluorescence, LPC substrate); format: biochemical; settings: percent of uninhibited control (100%) at 1E−05 M compound
T1 construct: made in house; host or cells: Hi5 insect cells (baculovirus)
In short: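 Recombinant human autotaxin (Hi5 baculovirus) pre-incubated with compound 30 min at 22° C, then 75 μM LPC added for 90 min at 37° C. Choline released detected via choline oxidase/peroxidase/Amplex Red fluorescence (Ex 485, Em 612 nm); ten 1:3 dilutions from 30 μM, normalised to 500 μM C14 LPA, for IC50.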

SMILES	% CTRL (1E−05)
O=C(Nc1ccc(Cl)cc1)Nc1sc2c(c1C(=O)N1CCCC1)CCN(C(=O)c1ccc3[nH]nnc3c1)C2 [Compound 27, 1-[6-(1H-Benzotriazole-5-carbonyl)-3-(pyrrolidine-1-carbonyl)-4,5,6,7-tetrahydro-thieno[2,3-c]pyridin-2-yl]-3-(4-chloro-phenyl)-urea]	52%

same assay, conditions: ten serial 1:3 dilutions starting at 30 μM, duplicates; 75 μM LPC; values given as upper bounds

SMILES	IC50
NC(=O)c1c(NC(=O)Nc2ccc(Cl)cc2)[nH]c2cc(C(=O)Nc3ccc4[nH]c(=O)oc4c3)ccc12 [Compound 28, 2-[3-(4-Chloro-phenyl)-ureido]-1H-indole-3,6-dicarboxylic acid 3-amide 6-[(2-oxo-2,3-dihydro-benzooxazol-6-yl)-amide]]	< 30 µM
NC(=O)c1c(NC(=O)Nc2ccc(Cl)cc2)sc2c1CCN(Cc1ccncc1)C2 [Compound 20, 2-[3-(4-Chloro-phenyl)-ureido]-6-pyridin-4-ylmethyl-4,5,6,7-tetrahydro-thieno[2,3-c]pyridine-3-carboxylic acid amide]	< 10 µM
COc1ccc2c(c1)CCC(NC(=O)c1[nH]nc3c1CCN(C(=O)c1ccc4[nH]nnc4c1)C3)C2 (stereo not drawn) [Compound 62, 6-(1H-Benzotriazole-5-carbonyl)-4,5,6,7-tetrahydro-2H-pyrazolo[3,4-c]pyridine-3-carboxylic acid (6-methoxy-1,2,3,4-tetrahydro-naphthalen-2-yl)-amide]	< 10 µM
O=C(Nc1ccc2[nH]nnc2c1)c1[nH]nc2c1CCN(C(=O)OCc1cc(Cl)cc(Cl)c1)C2 [Compound 52, 3-(1H-Benzotriazol-5-ylcarbamoyl)-2,4,5,7-tetrahydro-pyrazolo[3,4-c]pyridine-6-carboxylic acid 3,5-dichloro-benzyl ester]	< 1 µM
O=C(NCCc1ccc(Br)cc1)c1[nH]nc2c1CCN(C(=O)c1ccc3[nH]nnc3c1)C2 [Compound 44, 6-(1H-Benzotriazole-5-carbonyl)-4,5,6,7-tetrahydro-2H-pyrazolo[3,4-c]pyridine-3-carboxylic acid [2-(4-bromo-phenyl)-ethyl]-amide]	< 10 µM
